{"source": "patent US20170131257A1", "about": "“SYSTEMS AND METHODS OF REMOVING AND MANAGING HEAVY METALS” (priority 2007, published 2017)", "key": {"[1]": {"assay": "Mercury binding test of substrates in a salt solution"}, "Zebra Fish": {"system": "Zebra Fish", "type": "in vivo", "experimental": "Following EPA Method 7473, a total of 44 Zebra fish were randomized into four one gallon tanks and fed an experimental or control diet for 6 days. On the seventh day the fish were not fed so that any food being digested would have been absorbed or eliminated. The fish were fed 1.0 gram of food twice a day the first day. On the second day the fish were fed 0.5 grams twice a day. On days 3-6 the fish were fed 0.5 gram once a day.\nThe control and experimental feed was prepared using:\n9.8 g. Frozen Thawed Brine Shrimp\nThe corn starch and water were boiled for 2 minutes then mixed with the remaining ingredients. The basic food was divided into four groups. The study groups consisted of: the control (Group C), an experimental group in which phytic acid di-sodium salt was added to the feed at 5% by […] (Group A), an experimental group in which 15 μg mercuric iodide salt per gram of food was added (Group B), and lastly Group D in which fish were fed the above stated amounts of mercuric iodide salt and phytic acid di-sodium salt.\nThe analysis was conducted by a contracted company, Northwest Pacific Labs. Samples were stratified by treatment and randomly sampled. A test of atomic absorption was used to determine absorbed mercury, after calibrating the instrument."}, "[2]": {"assay": "Chelation between mercury and phytic acid at different pH levels", "conditions": "pH levels including acidic levels commonly found in the stomach", "text": "An amount of food 72 that may contain a concentration of the heavy metal (“contaminated food”) is consumed with an amount of the ligand 74, or, near the time of consuming the ligand 74. In one implementation, the ligand 74 is phytic acid. The ligand 74 is preferably in an amount suitable for at least substantially bonding to the mercury contained within the food 72. The ligand 74 may be prepared in the form of a marinade or sauce directly applied to the food 72, or may be a separate supplement such as a pill, alternate food source, or the like. Ingestion 76 may provide mixing of the food 72 and ligand 74. When the food 72 and ligand 74 are mixed, then chelation 78 causes the mercury or other heavy metal in the food 72 to bond to the ligand 74, thereby forming a chelate 82. The chelate 82 causes food 72 containing some mercury to become a clean food 80, substantially free of the mercury. The clean food 80 proceeds to normal digestion 84, while the chelate 82 proceeds to safe egestion 86 from the body. Thus, the mercury contained within food 72 is passed through the living organism without digestion 84."}}, "data": [{"smiles": "O=P(O)(O)O[C@H]1[C@H](OP(=O)(O)O)[C@@H](OP(=O)(O)O)[C@H](OP(=O)(O)O)[C@@H](OP(=O)(O)O)[C@H]1OP(=O)(O)O", "note": "[Phytic Acid, phytic acid]", "values": [{"measurement": "binding of mercury by the substrate", "setting": "[1]", "result": "would bind mercury"}, {"measurement": "reduction of mercury absorption", "setting": "Zebra Fish; Group D (phytic acid plus mercury) vs mercury alone, baselines of mercury controlled for, seven day time frame", "result": 50, "unit": "%"}, {"measurement": "Total Hg Wet Weight, Mean", "setting": "Zebra Fish; Group D: phytic acid 5% per wt. and 15 micrograms HgI2 per gram food, fed 6 days, N=4", "result": ".1047"}, {"measurement": "absorbed mercury, group D vs mercury-alone group B", "setting": "Zebra Fish; weighted sample, Mann-Whitney test, Sig=0.000", "result": "less absorbed mercury"}, {"measurement": "chelation with mercury across pH", "setting": "[2]", "result": "can occur at a wide range of pH levels"}]}]}
